Source: US11834663B2, “Fibrotic treatment” (Monash University, priority 2015, dated 2023)

System: human cardiac fibroblasts (HCFs)
Assay: Human cardiac fibroblasts stimulated with Ang II: α-SMA and collagen expression
Format: cell-based
Conditions: HCFs + Ang II 0.1 μM, HFI-419 0.01 to 1 μM, approx. 72 hours; FIG. 26
Experimental: Commercially available human cardiac fibroblasts (HCF, Catalog #6300, Sciencell, CA, USA) were grown in T75 flask maintained in an incubator at 37° C., 5% CO2. Complete media composition: M199 media (#11150-059, life technologies)+10% FBS (#10437-028, life technologies)+1% Fibroblast Growth Supplement-2 (#2382, ScienCell)+1% penicillin/streptomycin 10,000 U/ml antibiotics (#15140-122, Life Technologies). Fresh complete media was replenished every alternate day until culture reached 70% confluence in which media is replenished daily until it reached approximately 90% confluence in order to passage/subculture. To subculture, media was discarded and culture was rinsed with warm PBS. After which, culture was detached using warm 0.05% Trypsin+EDTA with gentle swirling of flask to make sure cells were not adherent to surface of flask. Trypsin was then neutralized with complete media and suspension was then transferred into a new falcon tube and centrifuged at 1000 rpm for 5 minutes. […]
Once treatment is complete, cells were washed with warm PBS and detached using Accutase (A6964, Sigma), with 5 minutes incubation at 37° C. […] The supernatant (˜20 ul) was transferred to a new tube and protein concentrations were measured using Biorad Lowry protein assay. Protein quantification of respective markers were performed via standard western blot analysis. […]

CCOC(=O)C1=C(NC(C)=O)Oc2cc(O)ccc2C1c1cccnc1 (centres unmarked) [HFI-419]
collagen production in human cardiac fibroblasts: dose-dependently decreased
myofibroblast expression (α-SMA) in human cardiac fibroblasts: dose-dependently decreased
